Measured values published in publication PMC6753678, “Fueling Open Innovation for Malaria Transmission-Blocking Drugs: Hundreds of Molecules Targeting Early Parasite Mosquito Stages” (Frontiers in Microbiology, 2019).
Where two headings read alike, the source gives them in different places.

Key:
HepG2 cells [1] = experiment: HepG2 cytotoxicity assay; conditions: for IC50: read-out: HepG2 cytotoxicity assay IC50, dose response confirmation
In short: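 Cells at 2,500 per well in MEM with 10% fetal bovine serum and 1% NEAA were exposed to test compounds for 48 h at 37°C, 5% CO2. Viability was read by fluorescence, with percent inhibition calculated against 50 μM doxorubicin (positive) and DMSO (negative) controls.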

[2] = system: P. falciparum late stage (stages IV-V) gametocytes; design: method as in Almela et al 2016; conditions: ref Almela et al 2016, read-out: Pf GCT ATP IC50, cited from earlier work
[3] = system: P. falciparum female gametocytes; design: method as in Miguel-Blanco et al 2017; conditions: TCAMS screen comparison; ref Miguel-Blanco et al 2017; read-out: Pf FGAA IC50; cited from earlier work
HepG2 cells [4] = conditions: cited from earlier work
[5] = system: P. falciparum female gametocytes; experiment: P. falciparum female gametogenesis assay (Pf FGAA); conditions: 1: YES; 0: NO
[6] = system: P. falciparum late stage (stages IV-V) gametocytes; experiment: P. falciparum late stage gametocyte ATP depletion assay (Pf GC-ATP); conditions: 1: YES; 0: NO
[7] = system: 3D7-strain P. falciparum asexual parasites; experiment: P. falciparum asexual growth inhibition assay (Pf GIA); type: cell-based, Plasmodium falciparum; conditions: dose response confirmation; read-out: Pf asexual growth inhibition assays IC50
In short: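 Parasites at 0.25% parasitemia, 2% hematocrit in Albumax-supplemented RPMI were exposed to compounds in dose response for 72 h at 37°C under 5% CO2/5% O2. Viability was read as LDH activity (NBT/diaphorase, A650 after freeze-thaw). Percent inhibition was calculated against chloroquine and DMSO controls, mean of three biological replicates.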

[8] = system: P. berghei ookinete development; conditions: for % inhibition, Replicate A / % inhibition, Replicate B: primary screen at 1 μM
[9] = HepG2 cytotoxicity unified across the three screens
[10] = value reported with the Pf GCT ATP screen, ref Almela et al 2016
[11] = value reported with the Pf FGAA screen, ref Miguel-Blanco et al 2017
[12] = HepG2 values of the three screens unified
[13] = read-out: Pb Ookinete development assay IC50, dose response confirmation
[14] = read-out: Pb ODA IC50, this manuscript

Row | Structure (SMILES) | Unified cytotox (HepG2 cells [1]; [9]) [µM] | IC50 ([2]; TCAMS screen comparison) [µM] | IC50 [3] [µM] | HepG2 cytoxicity (HepG2 cells [4]; [10]) [µM] | Is compound selective in assay? Pf FGAA active? [5] | Is compound selective in assay? Pf GC-ATP active? [6] | HepG2 cytoxicity (HepG2 cells [4]; [11]) [µM] | IC50 [7] [µM] | Unified cytotox (HepG2 cells [1]; [12]) [µM] | IC50 (HepG2 cells [1]) [µM] | Is compound selective in assay? Pb ODA active? ([8]; 1: YES, 0: NO) | % inhibition, Replicate A [8] [%] | % inhibition, Replicate B [8] [%] | IC50 [8, 13] [µM] | IC50 [2] [µM] | HepG2 cytoxicity (Pf GCT ATP screen) (HepG2 cells [4]; ref Almela et al 2016) [µM] | HepG2 cytoxicity (Pb ODA, this manuscript) (HepG2 cells [1]) [µM] | IC50 [8, 14] [µM] | Is compound selective in assay? Pb ODA active? [8]
1 | CNC(=S)NN=C(C)c1ccccn1 [TCMDC-123475] | 25.00 | 1.17 | 0.014 | >25 | 1 (1: YES) | 1 (1: YES) |  |  |  |  |  |  |  |  |  |  |  |  | 
2 | COc1ccc(C[C@H](N)C(=O)N[C@H]2[C@@H](O)[C@H](n3cnc4c(N(C)C)ncnc43)O[C@@H]2CO)cc1 [TCMDC-123493] | 2.37 | 0.56 | 0.29 | 2.95 | 0 (0: NO) | 0 (0: NO) | 1.80 |  |  |  |  |  |  |  |  |  |  |  | 
3 | CCN(CC)CCCn1c(N)c(-c2nc3ccccc3[nH]2)c2nc(C#N)c(C#N)nc21 [TCMDC-123680] | 6.48 | 0.14 | 0.74 | 8.7 | 0 (0: NO) | 1 (1: YES) | 4.27 |  |  |  |  |  |  |  |  |  |  |  | 
4 | COc1cc2nc(N3CCN(c4nc(N)c5cc(OC)c(OC)cc5n4)CC3)nc(N)c2cc1OC [TCMDC-123865] | 52.49 | 0.26 | 0.58 | >25 | 1 (1: YES) | 1 (1: YES) | 52.49 |  |  |  |  |  |  |  |  |  |  |  | 
5 | [O-][s+]1c(Cl)c(-c2ccc(Cl)cc2)c2ccc(Cl)cc21 (centres unmarked) [TCMDC-124011] | 12.08 | 0.02 | 0.0366 | 12.8 | 1 (1: YES) | 1 (1: YES) | 11.35 |  |  |  |  |  |  |  |  |  |  |  | 
6 | C=CCN(C(=O)c1ccc(Cl)c([N+](=O)[O-])c1)c1nc(-c2ccccc2)cs1 [TCMDC-124436] | 100.00 | 0.11 | 0.13 | >25 | 1 (1: YES) | 1 (1: YES) | >100 |  |  |  |  |  |  |  |  |  |  |  | 
7 | Cc1sc2ncnc(Sc3nnc(N)s3)c2c1C [TCMDC-124542] | 36.31 | 0.3 | 0.77 | >25 | 1 (1: YES) | 1 (1: YES) | 36.31 |  |  |  |  |  |  |  |  |  |  |  | 
8 | COc1ccc(OC)c(-c2cccc(-c3cccc(NC(=O)c4ccc([N+](=O)[O-])o4)c3)n2)c1 [TCMDC-124799] | 4.89 | 0.78 | 0.96 | 6.15 | 0 (0: NO) | 0 (0: NO) | 3.63 |  |  |  |  |  |  |  |  |  |  |  | 
9 | O=C(c1ccc([N+](=O)[O-])o1)N1CCC(Cc2ccc(C(F)(F)F)cc2)CC1 [TCMDC-124805] | 20.58 | 0.26 | 0.16 | 14.11 | 1 (1: YES) | 1 (1: YES) | 27.05 |  |  |  |  |  |  |  |  |  |  |  | 
10 | COc1cccc(NC(=O)[C@H](C(C)C)n2c(=O)[nH]c3ccccc3c2=O)c1 [TCMDC-125133] |  |  |  |  |  | 1 (1: YES) |  | 0.17 | 100.00 | 100 | 1 (1: YES) | 62.00 | 73.38 | 1.53 | 0.54 | >50 |  |  | 
11 | CCOc1ccc(-c2nonc2NC(=O)c2cccc(Cl)c2)cc1OCC [TCMDC-125200] |  |  |  |  |  | 1 (1: YES) |  | 0.156 | 19.50 | 19.5 | 0 (0: NO) | 62.08 | 54.18 | 6.23 | 0.84 | >25 | 19.50 | 6.23 | 
12 | COc1ccc(C[C@H]2NC[C@H](O)[C@H]2OC(C)=O)cc1 [TCMDC-125504] |  |  |  |  |  | 0 (0: NO) |  | 0.054 | 1.24 | 2.29 |  | 102.72 | 96.40 | 0.215 | 0.17 | 0.19 | 2.29 | 0.21 | 0 (key: 1: YES; 0: NO)
13 | COCCn1c(-c2cccc(Cl)c2)nn(-c2ccc([N+](=O)[O-])cc2C#N)c1=S [TCMDC-134719] |  |  |  |  |  | 1 (1: YES) |  | 0.403 | 100.00 | 100 | 1 (1: YES) | 64.09 | 78.69 | 1.84 | 2.78 | >25 |  | 1.84 | 
14 | CCOCn1c(-c2ccccc2)cc2c3c(N)nc(N)nc3ccc21 [TCMDC-137979] |  |  |  |  |  | 0 (0: NO) |  | 0.18 | 5.22 | 4.79 | 0 (0: NO) | 30.79 | 81.58 | 7.5 | 1.3 | 5.65 | 4.79 | 7.5 | 
15 | C=CC(C)C1OC(=O)c2cc(OC)cc(OC)c21 (centres unmarked) [TCMDC-138676] |  |  |  |  |  | 0 (0: NO) |  | 0.259 | 1.01 | 1.22 | 0 (0: NO) | 44.05 | 73.82 | 0.489 | 0.4 | 0.8 | 1.22 | 0.49 | 
16 | Cc1cc(F)ccc1-c1nc(NCC(O)CNCCc2ccccc2)nc2c1ccc(=O)n2-c1c(F)cccc1F.O=C(O)C(F)(F)F (centres unmarked) [TCMDC-141784] |  |  |  |  |  | 1 (1: YES) |  | 0.451 | 11.63 | 14.8 | 0 (0: NO) | 54.07 | 33.72 | 3.85 | 0.23 | 8.47 | 14.79 | 3.85 | 
17 | O=c1c(Br)ccccc1Br [TCMDC-142246] |  |  |  |  |  | 1 (1: YES) |  | 2.07 | 13.70 | 14.8 | 1 (1: YES) | 52.58 | 94.32 | 0.933 | 0.21 | 12.6 | 14.79 | 0.93 | 
